Data published in PubChem BioAssay (NCI).
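Assay format: 96-well plates, 48-hour exposure. The concentration for 50% growth inhibition is given as GI50. TGI: concentration producing complete growth inhibition.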

Legend:
Assay in all cases: NCI tumour cell line growth inhibition, 48 h
[1] = tested on: ACHN renal
[2] = tested on: BT-549 breast
[3] = tested on: CAKI-1 renal
[4] = tested on: EKVX NSCLC
[5] = tested on: HS 578T breast
[6] = tested on: K-562 leukemia
[7] = tested on: MOLT-4 leukemia
[8] = tested on: NCI-H23 lung
[9] = tested on: OVCAR-8 ovarian
[10] = tested on: UACC-257 melanoma

SMILES	GI50 [1]	TGI [1]	GI50 [2]	TGI [2]	GI50 [3]	TGI [3]	GI50 [4]	TGI [4]	GI50 [5]	TGI [5]	GI50 [6]	TGI [6]	GI50 [7]	TGI [7]	GI50 [8]	TGI [8]	GI50 [9]	TGI [9]	GI50 [10]	TGI [10]
CCCn1c(C)nc2c1C(=O)c1ccccc1C2=O	37.7 µM	> 100 µM	31.4 µM	> 100 µM	12.2 µM	42.4 µM	18.9 µM	70.8 µM	17.8 µM	> 100 µM	9.87 µM	> 100 µM	19 µM	> 100 µM	26.7 µM	> 100 µM	31.8 µM	> 100 µM	16.5 µM	49 µM
C=CCOC1OC(CO[Si](C)(C)C(C)(C)C)C(OCc2ccccc2)C(OCc2ccccc2)C1OCc1ccccc1 (stereo not given)	–	> 100 µM	–	> 100 µM	–	> 100 µM	–	> 100 µM	–	> 100 µM	–	> 100 µM	–	> 100 µM	–	> 100 µM	–	> 100 µM	–	> 100 µM
C=CC(=O)N1CCN(c2ccc3cccc(NC(=O)c4cnc(C)cn4)c3n2)CC1	0.656 µM	> 100 µM	2.31 µM	21.6 µM	0.555 µM	11.5 µM	12.4 µM	> 100 µM	2.28 µM	26.3 µM	3.6 µM	> 100 µM	2.18 µM	6.66 µM	4.49 µM	19.5 µM	3.46 µM	> 100 µM	9.21 µM	36.7 µM
O=C(C1CCCCC1)[C@@H]1[C@]2(C(=O)NC3CCCCC32)[C@@H]2CCCN2[C@@]12C(=O)NC1CCC(Cl)CC12 (stereo not given in full)	103 µM	222 µM	145 µM	286 µM	80.8 µM	225 µM	69.9 µM	217 µM	153 µM	422 µM	41.2 µM	220 µM	32.2 µM	213 µM	119 µM	274 µM	162 µM	394 µM	135 µM	288 µM
CC(C)(C)c1n[nH]c(=S)n(/N=C/c2ccc(F)c(Oc3ccccc3)c2)c1=O	33.8 µM	> 100 µM	34.5 µM	94.5 µM	28.5 µM	68.9 µM	41.6 µM	> 100 µM	31.4 µM	85.8 µM	42.1 µM	> 100 µM	39.8 µM	> 100 µM	37.7 µM	> 100 µM	25.6 µM	> 100 µM	24.2 µM	68.4 µM
C[C@]12CC[C@H]3[C@@H](CCC4=CC(=O)CC[C@@H]43)[C@@H]1CC[C@@H]2OC(=O)CCc1ccccc1	18.9 µM	45.1 µM	17.5 µM	33.9 µM	12 µM	26.2 µM	2.23 µM	28.7 µM	4 µM	21.8 µM	18.8 µM	> 69 µM	17.5 µM	49.6 µM	19.9 µM	44.1 µM	21.5 µM	49.3 µM	24.6 µM	59.5 µM
COc1ccc(-c2n[nH]nc2-c2cc(OC)c3c(c2OC)OCO3)cc1	9.16 µM	> 100 µM	0.544 µM	25.9 µM	0.839 µM	> 60.1 µM	2.8 µM	39.7 µM	0.958 µM	15 µM	0.277 µM	> 82.4 µM	0.463 µM	33.1 µM	1.25 µM	26.5 µM	2.02 µM	> 69 µM	2.8 µM	> 100 µM
O=C(NN1C(=O)CSC12CCCCC2)c1[nH]c2ccc(F)cc2c1-c1ccccc1	20 µM	42.9 µM	33.8 µM	> 100 µM	31.9 µM	> 100 µM	83 µM	> 100 µM	21.8 µM	82.8 µM	21.3 µM	52.7 µM	13.9 µM	41.7 µM	18.4 µM	50.9 µM	18 µM	31.9 µM	23.3 µM	56.9 µM
Cc1cc2c3ccc(C)[n+](C)c3ccc2n1C	21.5 µM	> 100 µM	2.27 µM	13.1 µM	30.5 µM	> 100 µM	0.456 µM	13.6 µM	3.17 µM	24.3 µM	1.52 µM	> 100 µM	3.12 µM	27.4 µM	2.04 µM	29.2 µM	1.53 µM	29.8 µM	3.45 µM	16.1 µM
O=C(c1ccccc1)C(CN1CCOCC1)c1ccccc1 (stereo not given)	1.3 µM	2.71 µM	1.48 µM	3.77 µM	0.565 µM	1.95 µM	3.32 µM	16.9 µM	1.77 µM	8.37 µM	0.355 µM	3.38 µM	2.24 µM	6.43 µM	2.79 µM	12.3 µM	1.52 µM	3.22 µM	1.37 µM	3.13 µM
Clc1cc(Cl)c(OCC#CI)cc1Cl	3.01 µM	12 µM	7.21 µM	19.8 µM	1.09 µM	2.69 µM	14 µM	30.2 µM	16.9 µM	50.4 µM	3.49 µM	18.9 µM	2.05 µM	6.11 µM	12.6 µM	26.7 µM	3.39 µM	13.1 µM	2.79 µM	11.9 µM
C=C1CC[C@@H]2[C@](C)(COC(C)=O)[C@@H](O)CC[C@@]2(C)[C@@H]1COc1ccc2ccc(=O)oc2c1	> 100 µM	> 100 µM	47.8 µM	> 100 µM	> 100 µM	> 100 µM	> 100 µM	> 100 µM	29.9 µM	> 100 µM	62.6 µM	> 100 µM	> 100 µM	> 100 µM	> 100 µM	> 100 µM	> 100 µM	> 100 µM	> 100 µM	> 100 µM
